Format in all cases: biochemical
The target of experiment [1] is T1, BTK-WT (Homo sapiens, UniProt Q06187).
T1 construct: purified from insect cells as a full-length construct containing an N-terminal 6X-His tag; His6 (N); made in house; host or cells: insect cells (baculovirus Sf21 in Method B)
Put plainly: Btk in vitro inhibitory activity (one of Method A TR-FRET, Method B electrophoretic mobility shift, Method C radiometric filter binding). To be noted: D-compounds panel data; read-out: IC50 BTK-WT. Background: In EMSA bound probe runs differently from free probe, usually more slowly.

In experiment [2] the target is T2, ITK (Homo sapiens, UniProt Q08881).
T2 sequence (Q08881 1-620): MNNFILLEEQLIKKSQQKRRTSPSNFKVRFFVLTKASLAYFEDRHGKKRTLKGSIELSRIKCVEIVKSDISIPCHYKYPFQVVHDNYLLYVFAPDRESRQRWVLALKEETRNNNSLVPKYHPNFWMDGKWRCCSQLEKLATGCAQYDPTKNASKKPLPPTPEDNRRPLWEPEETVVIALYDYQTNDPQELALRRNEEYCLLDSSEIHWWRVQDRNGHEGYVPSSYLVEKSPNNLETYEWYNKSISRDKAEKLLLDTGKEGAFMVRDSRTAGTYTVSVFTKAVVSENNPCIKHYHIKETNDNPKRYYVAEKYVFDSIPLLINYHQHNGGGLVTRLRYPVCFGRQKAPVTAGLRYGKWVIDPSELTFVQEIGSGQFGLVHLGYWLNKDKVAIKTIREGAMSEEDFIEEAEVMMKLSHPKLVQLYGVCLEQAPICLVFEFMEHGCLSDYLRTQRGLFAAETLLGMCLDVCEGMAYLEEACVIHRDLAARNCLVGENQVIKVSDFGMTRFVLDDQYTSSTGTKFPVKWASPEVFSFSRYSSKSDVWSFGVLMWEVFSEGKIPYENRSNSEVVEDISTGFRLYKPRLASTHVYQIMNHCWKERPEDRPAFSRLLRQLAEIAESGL
The experiment in a line: Inhibition of a panel of kinases, in vitro HotSpot kinase assay: ITK. To be noted: D-compounds panel data; 1 μM ATP. The procedure:
(§1) The degree of inhibition of a panel of kinases is determined using the in vitro HotSpot kinase assay (purified enzymes, ^33P-ATP, an appropriate substrate and 1 μM ATP).

In experiment [3] the target is SRC (Homo sapiens, UniProt P12931). The experiment in a line: Inhibition of a panel of kinases, in vitro HotSpot kinase assay: SRC. As to conditions: D-compounds panel data; 1 μM ATP. As for the experimental part:
as §1

Experiment [4] has as its target LCK (Homo sapiens, UniProt P06239). The experiment in a line: Inhibition of a panel of kinases, in vitro HotSpot kinase assay: LCK. To be noted: D-compounds panel data; 1 μM ATP; read-out: IC50 LCK.
Experiment [5] addresses T3, TEC (Homo sapiens, UniProt P42680).
T3 sequence (P42680 1-631): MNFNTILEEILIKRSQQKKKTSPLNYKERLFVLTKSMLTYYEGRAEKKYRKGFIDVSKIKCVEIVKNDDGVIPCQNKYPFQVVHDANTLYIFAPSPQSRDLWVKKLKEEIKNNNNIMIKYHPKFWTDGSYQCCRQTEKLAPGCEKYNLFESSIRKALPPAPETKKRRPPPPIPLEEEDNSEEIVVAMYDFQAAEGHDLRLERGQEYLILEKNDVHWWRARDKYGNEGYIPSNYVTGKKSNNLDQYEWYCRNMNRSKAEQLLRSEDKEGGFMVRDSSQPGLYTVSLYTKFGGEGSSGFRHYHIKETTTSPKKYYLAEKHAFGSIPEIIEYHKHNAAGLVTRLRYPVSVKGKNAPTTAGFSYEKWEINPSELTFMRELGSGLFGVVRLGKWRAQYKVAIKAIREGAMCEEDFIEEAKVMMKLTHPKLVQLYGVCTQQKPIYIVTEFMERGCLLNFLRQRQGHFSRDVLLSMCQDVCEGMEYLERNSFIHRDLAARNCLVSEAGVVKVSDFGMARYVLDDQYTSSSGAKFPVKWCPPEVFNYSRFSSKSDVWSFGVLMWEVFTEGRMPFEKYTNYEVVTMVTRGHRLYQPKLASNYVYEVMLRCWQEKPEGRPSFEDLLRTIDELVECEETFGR
The experiment in a line: Inhibition of a panel of kinases, in vitro HotSpot kinase assay: TEC. As to conditions: D-compounds panel data; 1 μM ATP. The procedure: as §1

The structures appear in SMILES notation. Bounds are passed on as bounds.

Sequence of LCK (P06239 whole entry): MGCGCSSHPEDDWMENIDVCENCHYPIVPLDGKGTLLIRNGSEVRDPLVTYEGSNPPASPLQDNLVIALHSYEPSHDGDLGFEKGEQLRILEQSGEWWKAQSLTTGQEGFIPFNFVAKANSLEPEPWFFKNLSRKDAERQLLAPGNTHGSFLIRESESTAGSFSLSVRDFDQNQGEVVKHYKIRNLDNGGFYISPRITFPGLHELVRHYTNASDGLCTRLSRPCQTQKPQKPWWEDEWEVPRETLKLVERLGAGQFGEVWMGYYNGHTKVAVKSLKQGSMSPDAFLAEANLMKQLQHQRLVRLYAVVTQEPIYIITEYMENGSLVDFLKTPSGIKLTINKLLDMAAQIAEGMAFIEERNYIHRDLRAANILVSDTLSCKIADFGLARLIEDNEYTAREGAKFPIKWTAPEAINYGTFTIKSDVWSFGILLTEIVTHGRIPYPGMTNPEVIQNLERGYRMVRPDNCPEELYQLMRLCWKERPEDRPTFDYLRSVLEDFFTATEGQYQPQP
Sequence of SRC (P12931 whole entry): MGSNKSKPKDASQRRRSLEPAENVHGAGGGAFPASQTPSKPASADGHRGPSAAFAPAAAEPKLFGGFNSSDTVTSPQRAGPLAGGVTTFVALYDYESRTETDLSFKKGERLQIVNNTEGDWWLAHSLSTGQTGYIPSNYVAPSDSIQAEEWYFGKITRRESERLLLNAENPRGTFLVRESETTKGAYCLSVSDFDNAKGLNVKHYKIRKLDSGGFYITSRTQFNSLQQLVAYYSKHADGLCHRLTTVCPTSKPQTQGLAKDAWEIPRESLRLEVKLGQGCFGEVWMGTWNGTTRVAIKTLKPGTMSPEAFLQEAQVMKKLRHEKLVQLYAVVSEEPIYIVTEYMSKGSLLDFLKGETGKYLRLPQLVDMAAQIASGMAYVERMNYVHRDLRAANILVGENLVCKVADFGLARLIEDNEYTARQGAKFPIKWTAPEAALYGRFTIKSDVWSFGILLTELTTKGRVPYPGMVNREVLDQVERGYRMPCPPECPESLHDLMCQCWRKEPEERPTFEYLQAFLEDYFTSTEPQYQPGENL
T1 sequence (Q06187 whole entry): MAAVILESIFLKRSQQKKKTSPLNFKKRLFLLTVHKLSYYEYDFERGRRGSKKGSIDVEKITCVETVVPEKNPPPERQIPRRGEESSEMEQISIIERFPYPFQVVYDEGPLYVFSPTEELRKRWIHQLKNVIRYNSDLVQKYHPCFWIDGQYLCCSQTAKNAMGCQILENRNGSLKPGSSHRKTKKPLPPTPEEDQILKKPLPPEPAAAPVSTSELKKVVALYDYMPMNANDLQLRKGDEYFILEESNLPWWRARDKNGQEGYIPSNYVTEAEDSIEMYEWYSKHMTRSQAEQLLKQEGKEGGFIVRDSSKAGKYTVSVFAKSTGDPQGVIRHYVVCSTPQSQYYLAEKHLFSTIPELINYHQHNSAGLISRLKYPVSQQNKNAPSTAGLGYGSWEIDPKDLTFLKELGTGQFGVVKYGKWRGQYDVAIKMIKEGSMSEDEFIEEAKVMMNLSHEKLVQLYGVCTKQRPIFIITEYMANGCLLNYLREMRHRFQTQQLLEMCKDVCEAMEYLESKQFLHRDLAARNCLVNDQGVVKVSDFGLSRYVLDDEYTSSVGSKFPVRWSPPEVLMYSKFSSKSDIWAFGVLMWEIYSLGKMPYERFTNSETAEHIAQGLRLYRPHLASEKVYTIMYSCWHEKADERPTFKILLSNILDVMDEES

Consider `C[C@@H]1[C@H](NC(=O)c2ccc(C3CC3)cc2)CCCN1c1cnc(C(N)=O)c(Nc2cn[nH]c2)n1` [Example D-282, 5-[(2R,3R)-3-(4-cyclopropylbenzamido)-2-methylpiperidin-1-yl]-3-[(1H-pyrazol-4-yl)amino]pyrazine-2-carboxamide], for which the concentration for half-maximal inhibition (IC50) in experiment [1] was at most 0.01 µM; in experiment [2] it was 0.1 to 1 µM; in experiment [3] it was 0.1 to 1 µM; in experiment [4], 0.1 to 1 µM; in experiment [5] it was 0.01 to 0.1 µM.
On to `C[C@@H]1[C@H](NC(=O)c2ccc3c(cnn3C)c2)CCCN1c1cnc(C(N)=O)c(Nc2cnn(C)c2)n1` [Example D-254, N-[(2R,3R)-1-{5-carbamoyl-6-[(1-methyl-1H-pyrazol-4-yl)amino]pyrazin-2-yl}-2-methylpiperidin-3-yl]-1-methyl-1H-indazole-5-carboxamide], for which the IC50 in experiment [1] is at most 0.01 µM; in experiment [2], 0.1 to 1 µM; in experiment [3], 0.01 to 0.1 µM; in experiment [4] it was 0.1 to 1 µM; in experiment [5] it was at most 0.01 µM.
Consider `C[C@@H]1[C@H](NC(=O)c2ccc(C3CC3)nc2)CCCN1c1cnc(C(N)=O)c(Nc2ccc(N3CCC(F)(F)CC3)cc2)n1` [Example D-305, 5-[(2R,3R)-3-(6-cyclopropylpyridine-3-amido)-2-methylpiperidin-1-yl]-3-{[4-(4,4-difluoropiperidin-1-yl)phenyl]amino}pyrazine-2-carboxamide], for which the IC50 in experiment [1] was at most 0.01 µM; in experiment [2], 0.1 to 1 µM; in experiment [3] it was 0.01 to 0.1 µM; in experiment [4], 0.1 to 1 µM; in experiment [5], 0.01 to 0.1 µM.
For `CCOCCOc1ccc(Nc2nc(N3CCC[C@@H](NC(=O)c4ccc(C5CC5)cc4)[C@H]3C)cnc2C(N)=O)cc1` [Example D-299, 5-[(2R,3R)-3-(4-cyclopropylbenzamido)-2-methylpiperidin-1-yl]-3-{[4-(2-ethoxyethoxy)phenyl]amino}pyrazine-2-carboxamide], the 50% inhibitory concentration (IC50) in experiment [1] was 0.01 to 0.1 µM; in experiment [2], above 10 µM; in experiment [3] it was 1 to 10 µM; in experiment [4], above 10 µM; in experiment [5] it was 0.01 to 0.1 µM.
Regarding `C[C@@H]1[C@H](NC(=O)c2ccc(C(C)(O)CO)cc2)CCCN1c1cnc(C(N)=O)c(Nc2cnn(C)c2)n1` (single isomer, unassigned) [Example D-256], the half-maximal inhibitory concentration (IC50) is at most 0.01 µM in experiment [1]; 0.1 to 1 µM in experiment [2]; 0.01 to 0.1 µM in experiment [3]; 0.01 to 0.1 µM in experiment [4]; at most 0.01 µM in experiment [5].
For the compound `C[C@@H]1[C@H](NC(=O)c2ccc(C3CC3)cc2F)CCCN1c1cnc(C(N)=O)c(Nc2ccc(N3CCNCC3)c(F)c2)n1` [Example D-313, 5-[(2R,3R)-3-(4-cyclopropyl-2-fluorobenzamido)-2-methylpiperidin-1-yl]-3-{[3-fluoro-4-(piperazin-1-yl)phenyl]amino}pyrazine-2-carboxamide], the IC50 is at most 0.01 µM in experiment [1]; 0.01 to 0.1 µM in experiment [2]; 0.01 to 0.1 µM in experiment [3]; 0.01 to 0.1 µM in experiment [4]; at most 0.01 µM in experiment [5].
As for `C[C@@H]1[C@H](NC(=O)c2ccc(C3CC3)cc2)CCCN1c1cnc(C(N)=O)c(Nc2cnn(C3CCOCC3)c2)n1` [Example D-274, 5-[(2R,3R)-3-(4-cyclopropylbenzamido)-2-methylpiperidin-1-yl]-3-{[1-(oxan-4-yl)-1H-pyrazol-4-yl]amino}pyrazine-2-carboxamide], the IC50 is at most 0.01 µM in experiment [1]; 0.1 to 1 µM in experiment [2]; 0.01 to 0.1 µM in experiment [3]; 0.1 to 1 µM in experiment [4]; at most 0.01 µM in experiment [5].
Consider `C[C@@H]1[C@H](NC(=O)c2ccc3cnn(C)c3c2)CCCN1c1cnc(C(N)=O)c(Nc2cnn(C)c2)n1` [Example D-259, N-[(2R,3R)-1-{5-carbamoyl-6-[(1-methyl-1H-pyrazol-4-yl)amino]pyrazin-2-yl}-2-methylpiperidin-3-yl]-1-methyl-1H-indazole-6-carboxamide], for which the IC50 in experiment [1] was at most 0.01 µM; in experiment [2], 0.1 to 1 µM; in experiment [3], 0.01 to 0.1 µM; in experiment [4] it was 0.01 to 0.1 µM; in experiment [5], at most 0.01 µM.
For `C[C@@H]1[C@H](NC(=O)c2cc(C3CC3)n(C)n2)CCCN1c1cnc(C(N)=O)c(Nc2cnn(C)c2)n1` [Example D-253, 5-[(2R,3R)-3-(5-cyclopropyl-1-methyl-1H-pyrazole-3-amido)-2-methylpiperidin-1-yl]-3-[(1-methyl-1H-pyrazol-4-yl)amino]pyrazine-2-carboxamide], the IC50 in experiment [1] was at most 0.01 µM; in experiment [2], 0.1 to 1 µM; in experiment [3], 0.01 to 0.1 µM; in experiment [4] it was 0.1 to 1 µM; in experiment [5], at most 0.01 µM.
Consider `C[C@@H]1[C@H](NC(=O)c2ccc(C(O)C(F)(F)F)cc2)CCCN1c1cnc(C(N)=O)c(Nc2cnn(C)c2)n1` (single isomer, unassigned) [Example D-249], for which the IC50 in experiment [1] was at most 0.01 µM; in experiment [2], 0.1 to 1 µM; in experiment [3], 0.01 to 0.1 µM; in experiment [4] it was 0.01 to 0.1 µM; in experiment [5], at most 0.01 µM.
On to `C[C@@H]1[C@H](NC(=O)c2coc(C3CC3)n2)CCCN1c1cnc(C(N)=O)c(Nc2cnn(C)c2)n1` [Example D-257, 5-[(2R,3R)-3-(2-cyclopropyl-1,3-oxazole-4-amido)-2-methylpiperidin-1-yl]-3-[(1-methyl-1H-pyrazol-4-yl)amino]pyrazine-2-carboxamide], for which the IC50 was at most 0.01 µM in experiment [1]; 0.1 to 1 µM in experiment [2]; 0.01 to 0.1 µM in experiment [3]; 0.01 to 0.1 µM in experiment [4]; at most 0.01 µM in experiment [5].
Consider `C[C@@H]1[C@H](NC(=O)c2ccc3nccn3c2)CCCN1c1cnc(C(N)=O)c(Nc2cnn(C)c2)n1` [Example D-266, 5-[(2R,3R)-3-(imidazo[1,2-a]pyridine-6-amido)-2-methylpiperidin-1-yl]-3-[(1-methyl-1H-pyrazol-4-yl)amino]pyrazine-2-carboxamide], for which the concentration for half-maximal inhibition (IC50) was at most 0.01 µM in experiment [1]; 0.01 to 0.1 µM in experiment [2]; 0.01 to 0.1 µM in experiment [3]; 0.01 to 0.1 µM in experiment [4]; at most 0.01 µM in experiment [5].
Turning to `COCCN(C)Cc1cc(Nc2nc(N3CCC[C@@H](NC(=O)c4ccc(C5CC5)cc4)[C@H]3C)cnc2C(N)=O)sn1` [Example D-269, 5-[(2R,3R)-3-(4-cyclopropylbenzamido)-2-methylpiperidin-1-yl]-3-[(3-{[(2-methoxyethyl)(methyl)amino]methyl}-1,2-thiazol-5-yl)amino]pyrazine-2-carboxamide], the IC50 in experiment [1] is at most 0.01 µM; in experiment [2] it was 0.1 to 1 µM; in experiment [3] it was 0.01 to 0.1 µM; in experiment [4], 0.1 to 1 µM; in experiment [5] it was 0.1 to 1 µM.
Take `C[C@@H]1[C@H](NC(=O)c2cc(C3CC3)n[nH]2)CCCN1c1cnc(C(N)=O)c(Nc2cnn(C)c2)n1` [Example D-252, 5-[(2R,3R)-3-(3-cyclopropyl-1H-pyrazole-5-amido)-2-methylpiperidin-1-yl]-3-[(1-methyl-1H-pyrazol-4-yl)amino]pyrazine-2-carboxamide]: the half-inhibitory concentration (IC50) in experiment [1] is at most 0.01 µM; in experiment [2], 0.01 to 0.1 µM; in experiment [3], 0.01 to 0.1 µM; in experiment [4] it was 0.01 to 0.1 µM; in experiment [5], at most 0.01 µM.
On to `CC(=O)N1CCC(n2cc(Nc3nc(N4CCC[C@@H](NC(=O)c5ccc(C6CC6)cc5)[C@H]4C)cnc3C(N)=O)cn2)CC1` [Example D-283, 3-{[1-(1-acetylpiperidin-4-yl)-1H-pyrazol-4-yl]amino}-5-[(2R,3R)-3-(4-cyclopropylbenzamido)-2-methylpiperidin-1-yl]pyrazine-2-carboxamide], for which the IC50 in experiment [1] is at most 0.01 µM; in experiment [2] it was 0.1 to 1 µM; in experiment [3] it was 0.01 to 0.1 µM; in experiment [4] it was 0.01 to 0.1 µM; in experiment [5] it was at most 0.01 µM.

In general, IC50 refers to the midpoint of a concentration-inhibition curve.

The values are drawn from patent publication US20210070748A1, “INHIBITORS OF BRUTONS TYROSINE KINASE” (Pharmacyclics LLC, priority 2015, published 2021).
